Values of other authors as cited in US6395296B1, “Soluble double metal salt of group IA and IIA of hydroxycitric acid, process of preparing the same and its use in beverages and other food products without effecting their flavor and properties” (priority 1997, dated 2002).

Tests used:
[1] = system: ATP dependent citrate-lyase; settings: key enzyme in diverting carbohydrate to fatty acids and cholesterol synthesis; Sullivan et al., Sergio
[2] = system: conversion of excess carbohydrates to fat; settings: in animals; established by several scientists including at Hoffman-La Roche

## O=C(O)CC(O)(C(=O)O)C(O)C(=O)O (single isomer, unassigned; (-)) [HCA, (−) Hydroxycitric acid]
[1]
  inhibition of ATP dependent citrate-lyase: inhibit
[2]
  conversion of excess carbohydrates to fat: prevents the conversion of excess carbohydrates to fat
